Reference: PMC12376758, “Restoration of CB1 receptor function in hippocampal GABAergic neurons rescues memory deficits in Huntington’s disease models” (Translational Neurodegeneration, 2025)
Like-named read-outs stand apart in the source and are kept apart here.

Columns and labels:
[1] = tested on: mHtt; set-up: method as in PMID 20929960; conditions: pharmacological activation of CB1R, HD mouse models; cited from earlier work
[2] = tested on: aged mice; set-up: method as in PMID 16221768, PMID 36697430; conditions: chronic low-dose; cited from earlier work
[3] = biological target: T1, CB1R (Mus musculus, UniProt P47746); experiment: biochemical; type: binding; conditions: for Fraction high: CP55940 inhibition curve; for IC50: CP55940 vs [3H]SR141716A 2 nmol/L
T1 construct: from tissue
T1 sequence (P47746 whole entry): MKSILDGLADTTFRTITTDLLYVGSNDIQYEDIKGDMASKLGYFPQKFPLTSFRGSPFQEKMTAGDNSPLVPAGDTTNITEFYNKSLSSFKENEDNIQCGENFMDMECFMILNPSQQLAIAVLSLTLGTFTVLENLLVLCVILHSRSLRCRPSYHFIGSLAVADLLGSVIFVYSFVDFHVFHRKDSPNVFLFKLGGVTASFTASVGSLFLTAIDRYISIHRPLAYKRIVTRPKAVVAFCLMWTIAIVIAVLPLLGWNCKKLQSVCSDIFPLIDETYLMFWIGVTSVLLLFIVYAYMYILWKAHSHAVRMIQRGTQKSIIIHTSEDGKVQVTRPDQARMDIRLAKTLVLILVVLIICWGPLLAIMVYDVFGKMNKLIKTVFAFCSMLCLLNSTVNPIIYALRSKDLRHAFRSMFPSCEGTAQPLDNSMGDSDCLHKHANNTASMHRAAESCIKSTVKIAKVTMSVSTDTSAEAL

[4] = tested on: WT mice; experiment: Open field test in WT mice (WIN dose selection); type: in vivo, mouse; conditions: 13-week-old WT mice, WIN 1 and 4 mg/kg i.p., 10 days
Experimental: NOLT was conducted in a quadrangular open field (40 cm × 40 cm, 40 cm high) with a light intensity of 40 lx at controlled room conditions (19–22 °C, 40%–60% humidity). Mice were first habituated to the arena, which was devoid of objects but included spatial cues attached to the walls, for 15 min per session over two consecutive days. During this phase, spontaneous locomotor activity, as well as the time and the distance spent in the periphery versus the center, were measured. On the third day (NOLT training), two identical objects (A and A′) were placed in adjacent corners of the arena, and mice were allowed to explore for 10 min. […] Animal movements were tracked and recorded using the SMART® Junior software (Panlab, Spain). Exploration times were recorded to calculate the discrimination index as follows: discriminationindex=Timeexploringnovelobject-Timeexploringfamiliarobject/Timeexploringbothobjects×100\%
Exploration in the NORT followed the same conditions as described for the NOLT. […] During this phase, spontaneous locomotor activity and time/distance spent in the periphery versus the center of the arena were measured. […] Animal movements were tracked and recorded with the SMART® Junior software (Panlab, Spain). Exploration times were recorded and used to calculate the discrimination index as indicated above. […]

[5] = tested on: WT mice; experiment: Novel object location task (NOLT) in WT mice (WIN dose selection); type: in vivo, mouse; conditions: 13-week-old WT mice, WIN 1 and 4 mg/kg i.p., 10 days
Experimental: NOLT was conducted in a quadrangular open field (40 cm × 40 cm, 40 cm high) with a light intensity of 40 lx at controlled room conditions (19–22 °C, 40%–60% humidity). Mice were first habituated to the arena, which was devoid of objects but included spatial cues attached to the walls, for 15 min per session over two consecutive days. During this phase, spontaneous locomotor activity, as well as the time and the distance spent in the periphery versus the center, were measured. On the third day (NOLT training), two identical objects (A and A′) were placed in adjacent corners of the arena, and mice were allowed to explore for 10 min. Twenty-four hours later (NOLT testing), the object A was placed in the same location, while a new object (A″) was placed in the diagonally opposite corner. During the testing phase, mice were allowed to explore for 5 min. The arena was thoroughly cleaned between trials to eliminate residual odors. Animal movements were tracked and recorded using the SMART® Junior software (Panlab, Spain). Exploration times were recorded to calculate the discrimination index as follows: discriminationindex=Timeexploringnovelobject-Timeexploringfamiliarobject/Timeexploringbothobjects×100\%
(§1) Given the observed reduction of CB1R in the R6/1 hippocampus, we hypothesized that pharmacological activation of the remaining CB1Rs could mitigate HD-related memory decline.

[6] = tested on: WT mice; experiment: Novel object recognition task (NORT) in WT mice (WIN dose selection); type: in vivo, mouse; conditions: 13-week-old WT mice, WIN 1 and 4 mg/kg i.p., 10 days
Experimental: Exploration in the NORT followed the same conditions as described for the NOLT. Mice were first habituated to the arena, without objects, for 15 min on two consecutive days. During this phase, spontaneous locomotor activity and time/distance spent in the periphery versus the center of the arena were measured. On the third day (NORT training), mice were allowed to explore two identical objects (B and B′) for 10 min before being returned to their home cage. Twenty-four hours later (NORT testing), one of the familiar objects (B) and a new object (C) were placed in the same location as during the training session, and the mice were allowed to explore for 5 min. The arena was thoroughly cleaned between trials to prevent odor contamination. Animal movements were tracked and recorded with the SMART® Junior software (Panlab, Spain). Exploration times were recorded and used to calculate the discrimination index as indicated above.
as §1

[7] = tested on: WT mice; experiment: Y-maze in WT mice (WIN dose selection); type: in vivo, mouse; conditions: 13-week-old WT mice, WIN 1 and 4 mg/kg i.p., 10 days
Experimental: (§2) Spontaneous working memory was assessed using the Y-maze test. Mice were habituated to the testing room 1 h prior to the session. During the 8-min trial, each mouse was placed in the center of the maze and allowed to move freely. An arm entry was recorded when all four paws of the mouse were within the arm. The apparatus was cleaned thoroughly after each trial. Alternation was defined as successive entries into all three arms in an overlapping triplet sequence. Spontaneous alternation was calculated as the ratio of actual alternations to the total possible alternations, and the result was expressed as a percentage.
as §1

[8] = tested on: R6/1 mice; experiment: Y-maze spontaneous alternation in R6/1 mice; type: in vivo, mouse; conditions: WIN 1 mg/kg i.p. 10 days
Experimental: To selectively induce CB1R expression in GABAergic neurons, we generated a plasmid for AAV8-mDlx5/6-CNR1. Infectious AAV viral particles were developed by the Viral Vector Production Unit (UPV) of the Universitat Autònoma de Barcelona (UAB). WT and R6/1 mice, aged 10 weeks, were anesthetized with ketamine hydrochloride/xylazine hydrochloride (i.p.; 100 and 10 mg/kg, respectively, Merck) and injected bilaterally in the hippocampus with AAV8-mDlx-CB1R or AAV8-mCherry (Vector Biolabs) (viral concentrations ranging from 1.8 × 10^9 to 1.5 × 10^9). The injection coordinates (in mm) from bregma (anteroposterior and lateral) and from skull (dorsoventral) were as follows: anteroposterior: − 2.0; lateral ± 1.25, and dorsoventral: − 1.3 (CA1). AAVs were injected for over 2 min, and the cannula was left in place for an additional 5 min to allow complete diffusion of the virus before being slowly retracted. Mice were monitored for 1 h post-injection and then returned to the housing facility for 3 weeks. […] For double-positive quantification, Pearson’s correlation coefficient was calculated using ImageJ2. […]
Spontaneous working memory was assessed using the Y-maze test. […] An arm entry was recorded when all four paws of the mouse were within the arm. […] Spontaneous alternation was calculated as the ratio of actual alternations to the total possible alternations, and the result was expressed as a percentage.

[9] = tested on: Hdh^Q7/Q111 mutant KI mice; experiment: NOLT, NORT and Y-maze in Hdh^Q7/Q111 KI mice; type: in vivo, mouse; conditions: 6 months, sub-chronic WIN 1 mg/kg i.p.
Experimental: as §2
NOLT was conducted in a quadrangular open field (40 cm × 40 cm, 40 cm high) with a light intensity of 40 lx at controlled room conditions (19–22 °C, 40%–60% humidity). […] During this phase, spontaneous locomotor activity, as well as the time and the distance spent in the periphery versus the center, were measured. […] Animal movements were tracked and recorded using the SMART® Junior software (Panlab, Spain). Exploration times were recorded to calculate the discrimination index as follows: discriminationindex=Timeexploringnovelobject-Timeexploringfamiliarobject/Timeexploringbothobjects×100\%
Exploration in the NORT followed the same conditions as described for the NOLT. […] Animal movements were tracked and recorded with the SMART® Junior software (Panlab, Spain). […]

[10] = tested on: CB1R; type: in vivo, mouse; conditions: for CB1R protein level, Western blot: total hippocampal lysates, WIN 1 mg/kg i.p. 10 days
[11] = tested on: CB1R; type: in vivo, mouse; conditions: hippocampus
Experimental: WT and R6/1 mice were deeply anesthetized with ketamine and xylazine (i.p injection; 100 mg/kg and 10 mg/kg, respectively) and immediately perfused transcardially with saline, followed by 4% paraformaldehyde in phosphate buffer. Brains were then removed, post-fixed overnight in the same solution, cryoprotected by immersion in 30% sucrose, and frozen in dry ice-cooled methylbutane. Serial coronal cryostat sections (30 μm) were collected through the entire brain in PBS as free-floating sections and processed as described previously [47].
Sections were rinsed three times in PBS, permeabilized, and blocked in PBS containing 0.3% Triton X-100 and 3% normal goat serum (Pierce Biotechnology, Rockford, IL) for 15 min at room temperature. […]
Stained coronal sections were examined using a Carl Zeiss LSM880 confocal microscope, a 10 × , 40 × and 63 × oil-immersion objective, 4 × digital zoom, and a standard Airy disc pinhole. For each mouse, at least three 30-µm thick coronal sections containing the hippocampal region were analyzed. […] The CB1R-, calbindin- and GAD67-integrated density was quantified with NIH ImageJ2 version 2.9.0/1.53t (Wayne Rasband, NIH). For double-positive quantification, Pearson’s correlation coefficient was calculated using ImageJ2. […]

[12] = tested on: mutant huntingtin (mHtt) aggregates; experiment: EM48 immunostaining of mutant huntingtin nuclear aggregates in hippocampus; type: in vivo, mouse; conditions: R6/1 mice, hippocampus (CA1), WIN 1 mg/kg i.p. vs vehicle
Experimental: Hippocampal coronal sections from vehicle- and WIN-treated R6/1 mice were first incubated for 30 min in ammonium chloride (NH4Cl) to quench endogenous fluorescence. They were then blocked for 1 h in PBS containing 0.3% Triton X-100 (Merck), 3% normal goat serum (Abcam), and 1% bovine serum albumin (BSA; Merck). After blocking, the sections were incubated overnight at 4 °C with anti-EM48 (1:1000, Merck). The EM48 antibody specifically recognizes huntingtin-containing nuclear aggregates by targeting the first 256 amino acids of human huntingtin protein [48]. […]
Imaging was performed using a Leica Confocal SP5 with a 63 × oil-immersion objective, ensuring consistent imaging conditions (pinhole size:1 AU, resolution: 1024 × 1024 pixels, and intensity). Automated quantification of nuclear huntingtin aggregates, including the number, intensity, and pixel area of EM48-stained nuclei in the hippocampus, was carried out using the ImageJ particle analysis plugin.
The density of aggregates was calculated as the ratio of the number of positive particles (NII) to the pixel area (mm^2). EM48 staining index (SI) was determined as the product of the mean number of stained nuclei and the average nuclear stain intensity, as described previously.

[13] = tested on: CB2R; experiment: Western blot of CB2R in total hippocampal lysates after sub-chronic WIN; type: in vivo, mouse; conditions: WIN 1 mg/kg i.p. 10 days
[14] = tested on: CA1 pyramidal neurons; experiment: Golgi-Cox dendritic spine density analysis; type: in vivo, mouse; conditions: R6/1 mice, WIN 1 mg/kg i.p. sub-chronic
Experimental: Golgi-Cox impregnation was performed using the Rapid Golgistain Kit (FD Neurotechnologies, Columbia, MD) following the manufacturer's instructions. Mice were euthanized by cervical dislocation, and brains were rapidly removed. The two hemispheres were separated and incubated in a solution of A/B for 2 weeks. After this period, the brains were transferred to solution C for an additional 7 days. The brains were then processed using a cryostat to obtain 100-μm sections, which were mounted on gelatin-coated slides and left to dry for 24 h.
The sections were stained with the solutions provided in the kit and subsequently dehydrated before being mounted with DPX. Bright field images were acquired using a Leica AF6000 epifluorescence microscope with a × 63 numerical aperture objective for dendritic spine analysis. Segments of apical dendrites from hippocampal CA1 pyramidal neurons were selected for analysis. Dendritic spine density was manually quantified using the ImageJ Plug-in Cell Counter. Spines were marked in the appropriate focal plane preventing double counting, and only fully impregnated pyramidal neurons with their soma entirely within the thickness of the section were included. Dendritic segments ranging from 20 to 60 μm in length were analyzed. At least 60 dendrites per group from at least three mice per genotype were counted.

[15] = tested on: PSD95; experiment: Western blot of PSD95 in hippocampal lysates; type: in vivo, mouse; conditions: R6/1 mice, WIN 1 mg/kg i.p. 10 days
[16] = tested on: BDNF; experiment: Western blot of BDNF in hippocampal lysates; type: in vivo, mouse; conditions: R6/1 mice, WIN 1 mg/kg i.p. 10 days
[17] = tested on: CA1 pyramidal neurons; experiment: Ex vivo patch-clamp: depolarization-induced suppression of inhibition (DSI); type: in vivo, mouse; conditions: hippocampal slices of WIN-treated R6/1 mice, n = 17 neurons
[18] = tested on: adult rats; set-up: method as in PMID 12888772; conditions: chronic treatment; cited from earlier work
[19] = tested on: rat model of cholinergic degeneration; set-up: method as in PMID 39489624; conditions: low-dose WIN; cited from earlier work
[20] = tested on: CB1R; set-up: method as in PMID 36979335; conditions: rat model of cerebral ischemia; cited from earlier work
[21] = tested on: young rats; conditions: chronic WIN; cited from earlier work
[22] = tested on: models of vascular dementia and ischemic injury; set-up: method as in PMID 36979335, PMID 29945070; conditions: cited from earlier work

CCCCCc1cc(O)c2c(c1)OC(C)(C)[C@@H]1CCC(C)=C[C@@H]21 [THC, Δ9-tetrahydrocannabinol]
mHtt accumulation [1]: alleviates
cognitive function [2]: improves
cortical spine density [2]: increasing
synaptic protein expression [2]: increasing

CCCCCCC(C)(C)c1ccc([C@@H]2C[C@H](O)CC[C@H]2CCCO)c(O)c1 [CP55940]
Fraction high ([3]; hippocampal membranes of R6/1 WIN (1 mg/kg) mice): 0.6378^$$$
Fraction high ([3]; hippocampal membranes of WT WIN (1 mg/kg) mice): 0.4654
Fraction high ([3]; hippocampal membranes of WT veh mice): 0.4696
IC50 ([3]; IC50 (single binding site), hippocampal membranes of R6/1 veh mice): 64.4 ± 12.1 nM
IC50 ([3]; IC50, first value (high-affinity site), hippocampal membranes of R6/1 WIN (1 mg/kg) mice): 10.9 ± 16 nM
IC50 ([3]; IC50, first value (high-affinity site), hippocampal membranes of WT WIN (1 mg/kg) mice): 18 ± 16.7 nM
IC50 ([3]; IC50, first value (high-affinity site), hippocampal membranes of WT veh mice): 23.2 ± 18.8 nM
IC50 ([3]; read-out: IC50, second value (low-affinity site), hippocampal membranes of R6/1 WIN (1 mg/kg) mice): 382 nM
IC50 ([3]; read-out: IC50, second value (low-affinity site), hippocampal membranes of WT WIN (1 mg/kg) mice): 850 nM
IC50 ([3]; read-out: IC50, second value (low-affinity site), hippocampal membranes of WT veh mice): 1140 nM

Cc1c(C(=O)c2cccc3ccccc23)c2cccc3c2n1[C@H](CN1CCOCC1)CO3 [WIN, WIN 55212–2]
time spent in the periphery and the center of the open field arena [4]: No adverse effects
total distance traveled during the open field test [4]: No adverse effects
spatial memory (NOLT) [5]: no differences
recognition memory (NORT) [6]: no differences
working memory (Y-maze) [7]: no differences
spontaneous alternation performance (Y-maze) ([8]; presymptomatic stage (11 weeks, Fig. S4d)): significantly enhanced
spontaneous alternation performance (Y-maze) ([8]; symptomatic stage (13 weeks, Fig. 3d)): significantly enhanced
memory deficits (NOLT, NORT, Y-maze) [9]: restored
CB1R levels, Western blot ([10]; Hdh^Q7/Q111 KI mice 6 months, hippocampal lysates, sub-chronic WIN): trend of increase
CB1R protein level, Western blot ([10]; R6/1 mice 13 weeks): restored
CB1R protein level, Western blot ([10]; WT mice): significantly modulated
CB1R staining, immunohistochemistry ([11]; Hdh^Q7/Q111 KI mice, sub-chronic WIN): restored to near WT levels
CB1R levels, immunohistochemistry ([11]; R6/1 mice, WIN 1 mg/kg i.p. 10 days): comparable to those of WT controls
density of intranuclear mHtt inclusion [12]: significant reduction
CB2R levels, Western blot ([13]; Hdh^Q7/Q111 KI mice 6 months): did not significantly affect
CB2R levels, Western blot ([13]; R6/1 mice 13 weeks): did not significantly affect
apical dendritic spine density reduction in CA1 pyramidal neurons [14]: reversed
PSD95 protein level [15]: restored
BDNF protein level [16]: restored
DSI: suppression of IPSC amplitude after 5-s depolarizing step (-70 to 0 mV) [17]: 52.70% ± 5.65
performance in novel object recognition test [18]: did not affect
performance in open field test [18]: did not affect
CB1R activity in the cortex [19]: increase
cognitive performance [19]: improved
CB1R protein levels in the hippocampus [20]: significantly increased
cytoskeletal remodeling in the hippocampus [21]: increased dendritic thickness and branching
neuroprotection [22]: neuroprotective effects
